Experimental data reported in the supplement of paper PMC10011410.
± gives the standard deviation of the averaged measurements.

Columns and labels:
[1] = test system: U-2 OS; assay: intracellular GSH:GSSG ratio (calculated); higher = more reduced glutathione pool; conditions: 24 h
Procedure: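 Intracellular glutathione in U-2 OS cells after 24 h compound treatment at 5, 10 and 20 uM (some at 40 and 80 uM). Total glutathione and GSSG were measured with the GSH/GSSG-Glo kit, and the GSH:GSSG ratio was calculated. Mean of five technical replicate plates.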

[2] = test system: U-2 OS; assay: cell viability (CellTiter-Glo) relative to DMSO (% of control); higher = more viable; conditions: 24 h
Procedure: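 Cell viability of U-2 OS cells by CellTiter-Glo after 24 h compound treatment at 5, 10 and 20 uM (some at 40 and 80 uM), measured in parallel with the glutathione assay, as percent of DMSO control. Five technical replicate plates, averaged.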

[3] = test system: U-2 OS; assay: total intracellular glutathione (GSH + GSSG) relative to DMSO (% of control); higher = more glutathione; conditions: 24 h
Procedure: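 Total intracellular glutathione (GSH + GSSG) in U-2 OS cells by GSH/GSSG-Glo after 24 h compound treatment at 5, 10 and 20 uM (some at 40 and 80 uM), as percent of DMSO control. Five technical replicate plates, averaged.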

[4] = test system: U-2 OS; assay: cell painting activity score (Mahalanobis distance from DMSO wells); higher = stronger morphological phenotype; conditions: 24 h
Procedure, shortened: (§1)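 Using 384-well plates holding about 1,500 U-2 OS cells per well, treatment was applied by pin tool for 24 h at 37 °C, generally at six 2-fold concentrations ranging from 20 μM to 625 nM. Staining with MitoTracker, concanavalin A, phalloidin, wheat germ agglutinin, Hoechst and SYTO 14 preceded Opera Phenix imaging and CellProfiler feature extraction against DMSO cells on the same plate. Activity score and cell count are both referenced to DMSO wells, the former as a Mahalanobis distance. Four replicate plates were averaged for every value.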

[5] = test system: U-2 OS; assay: relative cell count vs DMSO (cell painting) (fraction of DMSO control); higher = more cells remaining (less cytotoxic); conditions: 24 h
Procedure, shortened: as §1

[6] = test system: U-2 OS; assay: AUC of culture confluence over time (live-cell imaging) (AUC (confluence % x time)); higher = more confluent culture (less growth inhibition)
Procedure, shortened: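 Each value is the area under a curve of confluence over time for U-2 OS cells. The cells, in F-12K medium with 10% FBS, were plated at 750 per well in 384-well plates and dosed by pin tool 24 h later, most compounds at 20, 10 and 5 μM with 0.2% DMSO. They were held at 37 °C and imaged every 4 h for up to 60 h.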

| SMILES | intracellular GSH:GSSG ratio ([1]; 5 µM) | intracellular GSH:GSSG ratio ([1]; 10 µM) | intracellular GSH:GSSG ratio ([1]; 20 µM) | cell viability ([2]; 5 µM) | cell viability ([2]; 10 µM) | cell viability ([2]; 20 µM) | total intracellular glutathione ([3]; 5 µM) | total intracellular glutathione ([3]; 10 µM) | total intracellular glutathione ([3]; 20 µM) | cell painting activity score ([4]; 0.625 µM) | cell painting activity score ([4]; 1.25 µM) | cell painting activity score ([4]; 2.5 µM) | cell painting activity score ([4]; 5 µM) | cell painting activity score ([4]; 10 µM) | cell painting activity score ([4]; 20 µM) | relative cell count ([5]; 0.625 µM) | relative cell count ([5]; 1.25 µM) | relative cell count ([5]; 2.5 µM) | relative cell count ([5]; 5 µM) | relative cell count ([5]; 10 µM) | relative cell count ([5]; 20 µM) | intracellular GSH:GSSG ratio ([1]; 80 µM) | cell viability ([2]; 40 µM) | cell viability ([2]; 80 µM) | AUC of culture confluence over time ([6]; 5 µM) | AUC of culture confluence over time ([6]; 10 µM) | AUC of culture confluence over time ([6]; 20 µM) | intracellular GSH:GSSG ratio ([1]; 40 µM) | total intracellular glutathione ([3]; 40 µM) | total intracellular glutathione ([3]; 80 µM) |
| --- | --- | --- | --- | --- | --- | --- | --- | --- | --- | --- | --- | --- | --- | --- | --- | --- | --- | --- | --- | --- | --- | --- | --- | --- | --- | --- | --- | --- | --- | --- |
| C=CC(=O)Nc1cccc(Nc2nc(Nc3ccc(Oc4ccnc(C(=O)NC)c4)cc3)ncc2F)c1 | 17.7 | 5.85 | 2.15 | 75.8 ± 3.4 | 59.5 ± 6.1 | 1.84 ± 1.1 | 64.2 ± 2 | 55.9 ± 4.7 | 5.78 ± 1.6 | 4.92 | 4.2 | 6.51 | 4.99 | 8.06 | 9.39 | 1 | 0.96 | 0.987 | 0.953 | 0.961 | 0.93 |  |  |  |  |  |  |  |  |  |
| O=[N+]([O-])c1c(Sc2ncnc3nc[nH]c23)cc(Cl)c2nsnc12 | 9.07 | 1.18 | 2.18 | 41.6 ± 9.6 | 5.86 ± 1.9 | 12 ± 2.9 | 74 ± 19 | 32.4 ± 4.7 | 43.3 ± 3.9 | 3.42 | 4.43 | 4.96 | 4.68 | 3.76 | 3.8 | 0.924 | 0.936 | 0.903 | 0.912 | 0.96 | 0.913 |  |  |  |  |  |  |  |  |  |
| O=[N+]([O-])c1ccc(-c2nnc(SC3=CS(=O)(=O)c4ccccc43)o2)cc1 | 10.4 | 3.4 | 3.08 | 84.5 ± 5.8 | 33.5 ± 5.2 | 49.4 ± 2.6 | 119 ± 3.7 | 38.4 ± 3.2 | 46.6 ± 3.2 | 6.12 | 8.55 | 13.1 | 17.1 | 14.6 | 17.5 | 0.934 | 0.893 | 0.773 | 0.394 | 0.225 | 0.29 |  |  |  |  |  |  |  |  |  |
| CC(C)([C@](C1=O)(C2=O)C/C=C(C)\C)[C@@H](C[C@]31C[C@@H](C(C)(OC3=C2C(C4=CC(O)=C(C=C4)O)=O)C)C/C=C(C)\C)C/C=C(C)\C | 27 | 22.3 | 10.9 | 99.7 ± 2.4 | 62.6 ± 14 | 43.4 ± 17 |  |  |  | 3.69 | 3.85 | 6.36 | 7.13 | 13.5 | 18.6 | 1.21 | 1.12 | 1.19 | 1.15 | 1.04 | 0.492 | 17.8 | 0.646 ± 0.18 | 0.745 ± 0.2 |  |  |  |  |  |  |
| O=C1C(Cl)=C(NCCN2CCOCC2)C(=O)c2ncccc21 |  |  |  | 0.868 ± 0.067 | 0.657 ± 0.091 | 0.819 ± 0.053 | 1.89 ± 0.18 | 2.12 ± 0.18 | 1.91 ± 0.3 | 5.61 | 10.4 | 14.7 | 21.2 | 26.9 | 26.9 | 0.808 | 0.755 | 0.474 | 0.317 | 0.049 | 0.0399 |  |  |  | 16.5 | 14.9 | 12 |  |  |  |
| CC1=CC(=O)c2ccccc2C1=O | 17.1 | 2.21 | 1.63 | 40 ± 5.8 | 1.01 ± 0.2 | 1.22 ± 0.21 | 36.9 ± 4.5 | 4.53 ± 0.61 | 3.31 ± 0.24 | 4.82 | 3.53 | 4.48 | 6.92 | 10.5 | 17.1 | 0.971 | 0.921 | 0.979 | 0.89 | 0.643 | 0.277 | 2.69 | 1.15 ± 0.15 | 0.692 ± 0.12 |  |  |  | 0.957 | 2.94 ± 0.44 | 2.93 ± 0.45 |
| O=S1(=O)CC(SCc2ccccc2)c2ccccc21 (configuration not stated) | 30.3 | 20.1 | 26.3 | 107 ± 2.6 | 104 ± 5.2 | 97.8 ± 5.9 | 105 ± 2.7 | 98.7 ± 6.5 | 106 ± 6.4 | 4.11 | 4.32 | 4.24 | 4.29 | 3.77 | 3.73 | 1.13 | 1.12 | 1.06 | 1.07 | 1.14 | 1.12 |  |  |  |  |  |  |  |  |  |
| CCOc1ccccc1-n1c(C(C)N2CCN(C(=O)COc3ccc(Cl)cc3)CC2)nc2ccccc2c1=O (configuration not stated) |  |  |  | 102 ± 3.5 | 95.2 ± 4.2 | 40.6 ± 14 | 10.4 ± 0.54 | 2.5 ± 0.32 | 1.15 ± 0.16 | 6.32 | 5.84 | 6.59 | 9.13 | 10.4 | 14.2 | 0.983 | 0.945 | 0.996 | 0.969 | 0.922 | 0.508 |  |  |  | 45 | 40 | 39.9 |  |  |  |
| CC1=NN(c2ccc(C(=O)O)cc2)C(=O)/C1=C\c1ccc(-c2cc(C)c(C)cc2[N+](=O)[O-])o1 | 27.1 | 21.9 | 23.1 | 91.3 ± 6.4 | 91.1 ± 2.4 | 96.4 ± 7.8 | 96 ± 2.5 | 105 ± 3.6 | 101 ± 4 | 5.05 | 4.06 | 4.65 | 6.01 | 14.4 | 15 | 0.893 | 0.944 | 0.894 | 0.904 | 0.854 | 0.787 | 18.3 | 107 ± 8.1 | 90.6 ± 5.9 |  |  |  | 20 | 102 ± 7.7 | 102 ± 5.6 |
| O=C(CSC1CC(=O)N(c2cccc(Cl)c2)C1=O)Nc1ccc(Br)cc1 (configuration not stated) | 28 | 31.9 | 26.5 | 105 ± 8.8 | 99.5 ± 4.2 | 107 ± 5.8 | 94.6 ± 4.8 | 93.9 ± 4 | 95.2 ± 5.6 | 3.18 | 3.28 | 3.09 | 4.23 | 3.79 | 3.43 | 1.13 | 1.13 | 1.06 | 1.06 | 1.1 | 1.12 |  |  |  |  |  |  |  |  |  |
| S=C(Nc1ccccc1)Nc1nc(-c2ccccc2)[n+](-c2ccccc2)s1 | 27.8 | 18.7 | 29 | 91.8 ± 2.3 | 106 ± 3.2 | 97.5 ± 6.9 | 116 ± 14 | 96.7 ± 11 | 130 ± 9.9 | 3.57 | 4.45 | 5.25 | 3.52 | 6.94 | 3.81 | 0.907 | 0.951 | 0.994 | 0.926 | 0.955 | 0.94 |  |  |  |  |  |  |  |  |  |
| Oc1cccc(-c2nc(N3CCOCC3)c3oc4ncccc4c3n2)c1 | 22.3 | 19.6 | 20.9 | 58.4 ± 1.5 | 56.8 ± 2.5 | 55.17 ± 0.53 | 58.8 ± 2.2 | 60.1 ± 3.8 | 58.6 ± 2.4 | 9.68 | 11.3 | 11.4 | 11.6 | 10 | 11.3 | 0.904 | 0.875 | 0.774 | 0.734 | 0.738 | 0.682 |  |  |  |  |  |  |  |  |  |
| O=C1C(NCCN2CCOCC2)=C(Cl)C(=O)c2ncccc21 |  |  |  | 0.456 ± 0.11 | 0.267 ± 0.043 | 0.463 ± 0.11 | 2.27 ± 0.32 | 1.68 ± 0.27 | 2.13 ± 0.32 | 13.7 | 13.9 | 19.1 | 25.9 | 25.2 | 24.1 | 0.572 | 0.496 | 0.191 | 0.0808 | 0.0881 | 0.111 |  |  |  | 13.2 | 12.9 | 13 |  |  |  |
| COC(=O)c1ccc([C@H]2c3[nH]c4ccccc4c3C[C@H](C(=O)OC)N2C(=O)CCl)cc1 | 3.83 | 3.98 | 1.09 | 69.6 ± 4.1 | 49.1 ± 4.9 | 6.2 ± 1.6 | 93.1 ± 5.2 | 75.3 ± 6.4 | 10.7 ± 1.2 | 10.3 | 10.7 | 11.1 | 10.8 | 10 | 17.9 | 0.876 | 0.867 | 0.818 | 0.68 | 0.524 | 0.186 |  |  |  |  |  |  |  |  |  |
| O=S1(=O)CC(Sc2cccs2)c2ccccc21 (configuration not stated) | 25.2 | 24.8 | 30 | 103 ± 5.5 | 100 ± 5.5 | 104 ± 4.5 | 115 ± 4.9 | 107 ± 9.4 | 120 ± 8.6 | 3.43 | 3.86 | 4.15 | 3.78 | 3.12 | 10.7 | 1.02 | 0.974 | 0.948 | 1 | 0.984 | 0.61 |  |  |  |  |  |  |  |  |  |
